From PMC10363080, “Modulatory Effect of Pyrus pyrifolia Fruit and its Phenolics on Key Enzymes against Metabolic Syndrome: Bioassay-Guided Approach, HPLC Analysis, and In Silico Study” (Plant Foods for Human Nutrition (Dordrecht, Netherlands), 2023)
Like-named read-outs stand apart in the source and are kept apart here.

Columns and labels:
[1] = ABTS radical scavenging antioxidant assay; parameters: ABTS AA (%) antioxidant activity percentage: concentration or dose not given beside the values; settings: for ABTS antioxidant activity: Trolox equivalent per gram of sample, mean ± SD, n=3; for ABTS AA (%) antioxidant activity percentage: compared to ascorbic acid (=100)
Protocol: (§1) all of analytical grade. An electrothermal 9100 (UK) was used for the determination of melting points (uncorrected). A Jenway model 6800 spectrophotometer was utilized for recording UV spectra. A Tecan, microplate reader, ((Infinite F50, Switzerland)) was used to measure the absorbances. A Bruker NMR system was used for 1H-NMR (400 MHz) and 13C-NMR (100 MHz).
(§2) The NMR spectra were determined in CD3OH and DMSO-d6. Chemical shifts are given in δ (ppm) relative to the internal standard TMS. Phenolic acids and flavonoids used in HPLC analysis as well as all other reagents for biological investigations were obtained from Sigma Chemical Company […]
(§3) Determination of the antioxidant activity
(§4) 2,2`-Azino-bis(3-ethylbenzothiazoline-6-sulfonic acid) (ABTS), ferric reducing antioxidant power (FRAP), and oxygen radical absorbance capacity (ORAC) assays were performed according to the previously published procedures. Ascorbic acid was used as a reference antioxidant […]
drug. […]

[2] = Ferric reducing antioxidant power (FRAP) assay; parameters: FRAP AA (%) antioxidant activity percentage: concentration or dose not given beside the values; settings: for FRAP antioxidant activity: Trolox equivalent per gram of sample, mean ± SD, n=3; for FRAP AA (%) antioxidant activity percentage: compared to ascorbic acid (=100)
Protocol: as §1, §2, §3, §4
drug. […]

[3] = Oxygen radical absorbance capacity (ORAC) assay; settings: for ORAC antioxidant activity: Trolox equivalent per gram of sample, mean ± SD, n=3; for ORAC AA (%) antioxidant activity percentage: compared to ascorbic acid (=100)
Protocol: as §1, §2, §3, §4
drug. […]

Recombinant renin = target: T1, Recombinant renin (Homo sapiens, UniProt P00797); experiment: Renin inhibitory activity (renin-inhibitor screening assay kit); format: biochemical; settings: read-out: Inhibition (IC50) Renin (converted)
T1 construct: purchased BPS Bioscince
T1 sequence (P00797 67-406): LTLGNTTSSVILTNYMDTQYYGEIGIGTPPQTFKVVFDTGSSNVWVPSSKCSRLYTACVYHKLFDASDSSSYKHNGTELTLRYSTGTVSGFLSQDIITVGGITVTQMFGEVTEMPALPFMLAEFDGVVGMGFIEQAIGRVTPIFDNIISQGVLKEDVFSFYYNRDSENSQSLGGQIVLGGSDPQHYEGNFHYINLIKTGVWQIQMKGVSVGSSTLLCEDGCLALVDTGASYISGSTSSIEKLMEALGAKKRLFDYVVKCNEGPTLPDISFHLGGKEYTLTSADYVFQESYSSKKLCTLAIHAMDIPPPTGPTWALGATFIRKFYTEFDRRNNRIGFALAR
Protocol: all of analytical grade. […]
(§5) Phenolic acids and flavonoids used in HPLC analysis as well as all other reagents for biological investigations were obtained from Sigma Chemical Company […]
(§6) Inhibitory activity against key enzymes related to metabolic syndrome (MS) All assays were performed in 96-well plates. Stock solutions of the extract (100 mg/mL), fractions (100 mg/mL), and isolated compounds (1000 µM) were prepared. Tested samples that exceeded […]
(§7) inhibitory concentration (IC50). The percentage of enzyme inhibition was calculated according to […]
(§8) % Inhibition = (A−B) − (C−D) x 100 […]
Renin inhibitory activity
The renin inhibitory activity was examined according to a previously described method using renin-inhibitor screening assay kit (BPS Bioscince, San Diego, CA, USA) and quinapril as a reference drug. Recombinant renin enzyme (50 μL) was dissolved in 50-mM Tris-HCl buffer (pH 8.0) and 100-mM NaCl (assay buffer) and stored at –80°C for further analysis. Twenty μL of renin substrate (A500 μM in DMSO), 150 μL of assay buffer, and 10 μL of each sample were used to prepare test solutions (10mg/ml in methanol). The blank samples were made using 10 μL of the sample, 20 μL of the substrate, and 160 μL of assay buffer. The positive control samples were created using 10 μL of methanol, 20 μL of substrate, and 150 μL of assay buffer. The positive control and tested samples were combined with 10 μL of the renin solution for the assay in order to catalyze the reaction. After that, the reaction mixture was incubated for 45 minutes at 37 °C.
The fluorescence generated at the 340 nm excitation and 490 nm emission wavelengths was measured using a microplate reader.
Xanthine oxidase (XO) inhibitory activity
Xanthine oxidase (XO) inhibitory potential was carried out according to a previous designed procedure using xanthine oxidase (XO, EC 1.17.3.2; Biovision, USA). Allopurinol was applied as a reference drug. Immediately prior to use, a mixture was made up of 50 μL of sample solution, 35 μL of phosphate buffer (70 mM, pH = 7.5), and 30 μL of new enzyme solution (0.01 units/mL in the same buffer). The reaction was started by adding 60 μL of the substrate solution (150 μM xanthine in the same buffer) following a pre-incubation at 25 °C for 15 minutes. After that, the mixture was incubated at 25 °C for 30 min. After adding 25 μL of 1 M HCl to terminate the reaction, the absorbance was measured at 290 nm with a microplate reader as previously

[4] = target: T2, inducible nitric oxide synthase (iNOS) (Mus musculus, UniProt P29477); experiment: iNOS inhibitory activity in LPS-induced RAW264.7 macrophages (nitrite, Griess reagent); format: cell-based; settings: read-out: Inhibition (IC50) iNOS (converted)
T2 construct: endogenous in cells; host or cells: RAW264.7 mouse macrophages, LPS-induced
T2 sequence (P29477 1-1144): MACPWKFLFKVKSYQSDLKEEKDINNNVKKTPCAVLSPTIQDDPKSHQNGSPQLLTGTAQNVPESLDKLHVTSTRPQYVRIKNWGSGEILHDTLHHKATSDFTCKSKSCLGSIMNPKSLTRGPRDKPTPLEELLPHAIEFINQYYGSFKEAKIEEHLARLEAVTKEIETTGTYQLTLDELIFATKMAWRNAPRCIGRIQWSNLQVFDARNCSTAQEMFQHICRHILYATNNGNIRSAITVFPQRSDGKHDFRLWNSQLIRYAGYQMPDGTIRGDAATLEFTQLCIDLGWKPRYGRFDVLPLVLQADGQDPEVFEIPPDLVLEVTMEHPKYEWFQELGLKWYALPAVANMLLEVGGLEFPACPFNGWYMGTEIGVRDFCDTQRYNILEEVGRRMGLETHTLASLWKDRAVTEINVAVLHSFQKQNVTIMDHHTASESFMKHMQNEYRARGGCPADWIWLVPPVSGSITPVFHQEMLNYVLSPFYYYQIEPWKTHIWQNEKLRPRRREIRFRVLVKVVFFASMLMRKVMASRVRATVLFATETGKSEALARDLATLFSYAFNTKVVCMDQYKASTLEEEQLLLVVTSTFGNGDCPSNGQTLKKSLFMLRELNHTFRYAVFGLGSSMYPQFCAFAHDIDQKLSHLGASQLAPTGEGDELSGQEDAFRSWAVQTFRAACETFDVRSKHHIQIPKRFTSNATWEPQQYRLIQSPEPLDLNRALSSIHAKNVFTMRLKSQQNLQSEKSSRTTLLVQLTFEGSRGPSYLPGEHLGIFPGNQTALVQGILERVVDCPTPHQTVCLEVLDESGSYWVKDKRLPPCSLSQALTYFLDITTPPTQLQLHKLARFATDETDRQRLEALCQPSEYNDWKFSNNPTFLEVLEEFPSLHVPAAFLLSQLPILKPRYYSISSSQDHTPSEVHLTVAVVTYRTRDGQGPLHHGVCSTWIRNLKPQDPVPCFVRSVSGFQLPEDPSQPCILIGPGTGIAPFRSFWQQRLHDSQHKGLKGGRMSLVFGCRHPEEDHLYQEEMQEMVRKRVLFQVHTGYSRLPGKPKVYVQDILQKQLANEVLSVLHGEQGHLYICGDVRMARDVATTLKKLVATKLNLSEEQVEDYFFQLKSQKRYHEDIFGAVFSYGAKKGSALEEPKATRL
Protocol: as §5, §6, §7, §8
Inducible nitric oxide synthase (iNOS) inhibitory activity iNOS inhibitory activity was determined in mouse macrophage cells (RAW264.7, Shanghai BOGO Industrial Co., Ltd., China) according to a previously designed method. Phenol red-free RPMI medium from Thermo-Fisher was used to develop macrophages. It was supplemented with 10% bovine calf serum, 100 U/mL of penicillin G sodium from Sigma-Aldrich, and 100 µg/mL of streptomycin (Sigma-Aldrich). Cells (50,000/well) were seeded onto 96-well plates, which were […]

Structure (SMILES) | ABTS antioxidant activity [1] | ABTS antioxidant activity ([1]; listed as quercetin) | ABTS AA (%) antioxidant activity percentage [1] | FRAP antioxidant activity [2] | FRAP antioxidant activity ([2]; listed as quercetin) | FRAP AA (%) antioxidant activity percentage [2] | ORAC antioxidant activity [3] | ORAC antioxidant activity ([3]; listed as quercetin) | ORAC AA (%) antioxidant activity percentage [3] | IC50 (Recombinant renin; isolated compounds, Table S7) | IC50 ([4]; extract and fractions, Table S2, RAW264.7 cells) | IC50 ([4]; isolated compounds, Table S7, RAW264.7 cells) | IC50 (Recombinant renin; extract and fractions, Table S2)
O=c1c(O)c(-c2ccc(O)c(O)c2)oc2cc(O)cc(O)c12 [P5, quercetin] | 244.01±0.29 μM TE/g | 244.01 ± 0.29 μM TE/g | 84.79% | 139.03±0.65 μM TE/g | 139.03 ± 0.65 μM TE/g | 89.57% | 358.95±0.78 μM TE/g | 358.95 ± 0.78 μM TE/g | 91.99% | 21.9 ± 0.25 µM | – | – | –
O=C1O[C@H]([C@@H](O)CO)C(O)=C1O [Ascorbic acid, reference compound] | 287.78±1.01 μM TE/g | – | 100% | 155.22±0.03 μM TE/g | – | 100% | 390.21±0.99 μM TE/g | – | 100% | – | – | – | –
C=C1C(=O)O[C@H]2[C@H]1CC/C(C)=C/CC[C@@]1(C)O[C@@H]21 [parthenolide, reference compound] | – | – | – | – | – | – | – | – | – | – | 4.51 µM | 4.51 µM | –
CCOC(=O)[C@H](CCc1ccccc1)N[C@@H](C)C(=O)N1Cc2ccccc2C[C@H]1C(=O)O [quinapril, reference compound] | – | – | – | – | – | – | – | – | – | 0.045 µM | – | – | 0.0456 µM
